Five molecules from patent US20220370543A1, “METHODS OF TREATMENT FOR MODIFYING HEMODYNAMICS” (EBI ANTI SEPSIS B.V., priority 2019, published 2022) can be followed below.

The nature of series [1]: Solubility measurements / aggregation points of AQGV salts. The source says: At first attempts were made to mix a solution of the free base and an acid in order to achieve a concentrated DMSO solution of the salt and subsequently dilute this in water in order to determine solubility. […] It was decided to determine the solubility of the salts required by dilution of known amount of salts (not soluble) till a clear solution is obtained.

Series [2] in a line: EASI phase II study: pharmacokinetics. In kind it is in vivo. The conditions noted are these: human; for Cmax: in vivo, iv, 90 mg/kg, Phase II trial, 90 mg/kg/hour i.v. infusion. The method, then: (§1) Intravenous infusion of EA-230, 90 mg/kg/hour, or placebo, was initiated at the moment of first surgical incision using an automated infusion pump. Infusion rate was set at 250 ml/hour, and infusion was continued until cessation of the CPB, or after 4 hours of continuous infusion, whichever comes first.

In series [3] the test system is patients undergoing on-pump coronary artery bypass grafting (CABG). Description: EASI phase II study: safety, adverse events. In kind it is in vivo, human. The protocol:
During cardiac surgery, 180 patients received (double-blinded, placebo-controlled, randomized) 90 mg/kg/hour EA-230 or placebo. The primary endpoint was safety. Efficacy was assessed by immunomodulation (plasma interleukin (IL)-6 concentrations), renal function (glomerular filtration rate using iohexol and creatinine [GFRiohexol, eGFRMDRD] and the incidence of acute kidney injury [AKI, RIFLE criteria]), cardiovascular effects (fluid balance, vasoactive agents) and general outcome (length-of-stay).
A prospective, randomized, double-blind, placebo-controlled study was performed in which 180 elective patients, undergoing on-pump coronary artery bypass grafting, with or without concomitant valve surgery, were enrolled. Patients were randomized in a 1:1 ratio and received either EA-230, 90 mg/kg/hour, or a placebo. These were infused at the start of the surgical procedure until the end of the use of the cardiopulmonary bypass. The main focus in this first-in-patient study was on safety and tolerability of EA-230. The primary efficacy endpoint was the modulation of the inflammatory response by EA-230 quantified as the change in interleukin-6 plasma concentrations after surgery. A key secondary endpoint was the effect of EA-230 on renal function.
The present study was a single-center, prospective, double-blind, placebo-controlled, randomized, single-dose phase II study. It has an adaptive design to evaluate the safety and immunomodulatory effects of EA-230 in patients undergoing on-pump cardiac surgery for coronary artery bypass grafting (CABG) with or without concomitant valve surgery. 180 eligible patients were included and were randomized to receive either active or placebo treatment in a 1:1 ratio. This was a first-in-patient safety and tolerability study, of which the primary efficacy objective was to assess the immunomodulatory effects of EA-230. The key-secondary efficacy endpoint was the effect of EA-230 on renal function. This study was described in accordance with the Standard Protocol Items: Recommendations for Interventional Trial (SPIRIT) guidelines, and registered at clinicaltrials.gov under number NCT03145220.
as §1
All AEs were judged by the investigators with regard to severity (“mild, moderate, or severe”) according to Common Terminology Criteria for Adverse Events guidelines 4.030 and their perceived relation to the study drug (“definitely, probably, possibly, or unrelated/unlikely to be related”). SAEs or SUSARs include death, life-threatening disease, persistent and/or significant disability and/or incapacity, and hospitalization and/or prolongation of inpatient hospitalization.

Where [4] appears, read: 90 mg/kg/hour i.v. during CABG surgery.

As a reminder, the Cmax is the highest concentration seen after dosing.

Entries after “also recorded” stand apart in the source; their conditions may differ. Where two headings read alike, the source gives them in different places. Peptide text beside a SMILES is read from it.

With `Nc1ncnc2c1ncn2[C@@H]1O[C@H](COP(=O)(O)O)[C@@H](O)[C@H]1O` [adenosine-monophosphate], the “Clear solution on adding 0.9% NaCl” value in series [1] is reported as “no clear solution could be obtained”.

In the case of `O=C(O)/C=C\C(=O)O` [maleic acid], the “Solubility compared to AQGV-Ac” value in series [1] (0.9% NaCl) was “lower solubility”.

For `CC(C)[C@H](NC(=O)CNC(=O)[C@H](CCC(N)=O)NC(=O)[C@H](C)N)C(=O)O` [EA-230, AQGV] (H-AQGV-OH), the “Time to clearance from the circulation when infusion is terminated” value in series [2] was in the range of 5 to 10 min. The Cmax in series [2] (read-out: Arterial Cmax, range) lay within 12500 to 57500 ng/mL. Moreover, in series [2] (read-out: Mean arterial Cmax), the Cmax was found to be 30500 ng/mL. Moreover, the Cmax in series [2] (read-out: Mean venous Cmax) came out at 68400 ng/mL. Further, in series [2] (read-out: Venous Cmax, range), the Cmax lay within 19600 to 113000 ng/mL. Moreover, in series [3] (setting [4]), the “Adverse events compared with placebo” value was “less (serious) adverse events and less mayor clinical adverse events”; the “Patients suffering from (adverse) fluid retention compared with placebo” value is given as “significantly less patients suffering from fluid retention; also recorded: significant reduction of adverse fluid retention”. In addition, in series [3] (EASI-study, N = 91), the “AE of mild intensity: (%) of patients” value was “(83.5) %”, the “AE of mild intensity: e (number of events)” value is 188, the “AE of mild intensity: n (number of patients experiencing the event)” value is 76 and the “AE of moderate intensity: (%) of patients” value is “(24.2) %”. In series [3] (EASI-study, N = 91), the “AE of moderate intensity: e (number of events)” value is 23, the “AE of moderate intensity: n (number of patients experiencing the event)” value turned out to be 22, the “AE of severe intensity: (%) of patients” value is reported as “(5.5) %” and the “AE of severe intensity: e (number of events)” value stood at 6. In series [3] (EASI-study, N = 91), the “AE of severe intensity: n (number of patients experiencing the event)” value is 5, the “Anemia: (%) of patients” value is reported as “(5.5) %”, the “Anemia: e (number of events)” value was 5 and the “Anemia: n (number of patients experiencing the event)” value came to 5. Besides, in series [3] (EASI-study, N = 91), the “Any AE: (%) of patients” value was “(85.7) %”, the “Any AE: n (number of patients experiencing the event)” value amounted to 78, the “Any SAE: (%) of patients” value was “(13.2) %” and the “Any SAE: e (number of events)” value is reported as 23. Further, in series [3] (EASI-study, N = 91), the “Any SAE: n (number of patients experiencing the event)” value is given as 12, the “Any SUSAR: (%) of patients” value is given as “(0) %”, the “Any SUSAR: e (number of events)” value stood at 0 and the “Any SUSAR: n (number of patients experiencing the event)” value is 0. In addition, in series [3] (EASI-study, N = 91), the “Blood and lymphatic system disorders, Overall: (%) of patients” value is on record as “(5.5) %”; the “Blood and lymphatic system disorders, Overall: e (number of events)” value is 6; the “Blood and lymphatic system disorders, Overall: n (number of patients experiencing the event)” value is 5; the “Delirium: (%) of patients” value is recorded as “(5.5) %”. Moreover, in series [3] (EASI-study, N = 91), the “Delirium: e (number of events)” value was determined as 5, the “Delirium: n (number of patients experiencing the event)” value was 5, the “Fluid retention: (%) of patients” value is “(2.2) %” and the “Fluid retention: e (number of events)” value amounted to 2. In addition, in series [3] (EASI-study, N = 91), the “Gastrointestinal disorders, Overall: (%) of patients” value was “(23.1) %”; the “Gastrointestinal disorders, Overall: e (number of events)” value worked out at 27; the “Gastrointestinal disorders, Overall: n (number of patients experiencing the event)” value came to 21; the “Hemorrhagic diathesis: (%) of patients” value was “(1.1) %”. For the same molecule, in series [3] (EASI-study, N = 91), the “Hemorrhagic diathesis: e (number of events)” value is 1; the “Hemorrhagic diathesis: n (number of patients experiencing the event)” value is on record as 1; the “Infections and infestations, Overall: (%) of patients” value is “(14.3) %”; the “Infections and infestations, Overall: e (number of events)” value came to 15. Also, in series [3] (EASI-study, N = 91), the “Infections and infestations, Overall: n (number of patients experiencing the event)” value worked out at 13; the “Metabolism and nutrition disorders, Overall: (%) of patients” value is listed as “(11) %”; the “Metabolism and nutrition disorders, Overall: e (number of events)” value was 10; the “Metabolism and nutrition disorders, Overall: n (number of patients experiencing the event)” value is reported as 10. Further, in series [3] (EASI-study, N = 91), the “Nausea: (%) of patients” value is reported as “(16.5) %”; the “Nausea: e (number of events)” value is 15; the “Nausea: n (number of patients experiencing the event)” value is reported as 15; the “Psychiatric disorders, Overall: (%) of patients” value was “(9.9) %”. In series [3] (EASI-study, N = 91), the “Psychiatric disorders, Overall: e (number of events)” value was 9; the “Psychiatric disorders, Overall: n (number of patients experiencing the event)” value turned out to be 9; the “Renal and urinary disorders, Overall: (%) of patients” value is listed as “(4.4) %”; the “Renal and urinary disorders, Overall: e (number of events)” value was found to be 4. Moreover, the “Renal and urinary disorders, Overall: n (number of patients experiencing the event)” value in series [3] (EASI-study, N = 91) stood at 4. Further, in series [3] (continuous infusion 90 mg/kg/hour up to 4 hours, elective CABG surgery), the Safety and tolerability entry was “safe and No safety concerns emerged and well tolerated and showed an excellent safety profile”.

For the molecule adenosine, the “Clear solution on adding 0.9% NaCl” value in series [1] (1 or 0.5 mmol salt, small amounts of 0.9% NaCl added) was “no clear solution could be obtained”.

In the case of `CC(C)[C@H](NC(=O)CNC(=O)[C@H](CCC(N)=O)NC(=O)[C@H](C)N)C(=O)O` [AQGV-citrate] (H-AQGV-OH), the “Behaviour of highly concentrated solution” value is listed as “does not crystallize or aggregate but tend to form a highly viscous solution” in series [1] (0.9% NaCl, listed as Citric acid) and “remains clear but got very thick/viscous” in series [1] (0.9% NaCl, listed as citric acid). The “Solubility in DMSO” value in series [1] (free base mixed with acid in DMSO) is reported as “did not dissolve in DMSO at all”. In series [1] (in 0.5 mL 0.9% NaCl), the “Total amount dissolved (clear solution)” value amounted to 2.75 mmol.
